The record followed here is US20020182655A1, “Method for identifying ligands for G protein-coupled receptors” (priority 2001, published 2002).

One test concerns the target hGPR 6 (Homo sapiens, UniProt P46095). The experiment in a line: Ca2+ FLIPR assay in HEK293 cells transiently transfected with hGPR 6. In kind it is cell-based. The method, then:
(§1) Transient transfections were carried out by incubating 5×10^5 HEK293 cells or 2×10^5 CHO-K1 cells in 6-well plates at 37° C. for 24 hours. The cells were then transfected with 1 to 2 μg of a vector, pcDNA 3.1, into which a GPR 3 gene was inserted by Hind III and Xba I sites, under the control of pcDNA 3.1. It is also expected that GPR 3, 6, or 12 may be cloned under control of the eukaryotic CMV promoter or of a control plasmid without corresponding cloned insert. The HEK293 cells were transfected with the aid of FuGene 6 transfection reagent (commercially available, for example from Roche Diagnostics) and the CHO cells were transfected with the aid of Lipofectamine reagent (commercially available, for example from GIBCO-BRL), in each case according to the manufacturer's instructions.
(§2) HEK293 cells were transferred to 96-well microtiter plates 24 hours after transient transfection. The cell density was 80,000 cells per well. The microtiter plates were coated with poly-D-lysine. […] The compounds to be analyzed, i.e., S1P, DHS1P, suramin, and compounds from the lipid library, were present as 2 mM stock solutions in DMSO (dimethyl sulfoxide). […]
(§3) The FLIPR was programmed such that 50 μl of the triple-concentrated suramin stock solution were added to the cells, leading to a final suramin concentration of 300 μM. Fluorescence was measured in 3 second intervals for the first 3 minutes and in 10 second intervals for the last 2 minutes. Ca^2+ signals of ligands were determined similarly.
(§4) The fluorescence data of the 18 to 36 second time interval were used to determine agonist activity.
(§5) Regarding the FLIPR assay, HEK293 cells were transferred to 96-well microtiter plates 24 hours after transient transfection. […] Compounds to be analyzed, e.g., S1P and DHS1 P, were added at this stage. Fluorescence was measured by means of a fluorometric imaging plate reader in 3 second intervals for the first 3 minutes and in 10 second intervals for the last 2 minutes. The fluorescence data of the 18 to 36 second time interval were used to determine agonist activity. […]

The target of a further test is hGPR 3 (Homo sapiens, UniProt P46089). The experiment in a line: Ca2+ FLIPR assay in HEK293 cells transiently transfected with hGPR 3. In kind it is cell-based. The method, then:
as §1, §2, §3, §4, §5

For another test, the target named is T1, hGPR 12 (Homo sapiens, UniProt P47775).
T1 sequence (P47775 1-334): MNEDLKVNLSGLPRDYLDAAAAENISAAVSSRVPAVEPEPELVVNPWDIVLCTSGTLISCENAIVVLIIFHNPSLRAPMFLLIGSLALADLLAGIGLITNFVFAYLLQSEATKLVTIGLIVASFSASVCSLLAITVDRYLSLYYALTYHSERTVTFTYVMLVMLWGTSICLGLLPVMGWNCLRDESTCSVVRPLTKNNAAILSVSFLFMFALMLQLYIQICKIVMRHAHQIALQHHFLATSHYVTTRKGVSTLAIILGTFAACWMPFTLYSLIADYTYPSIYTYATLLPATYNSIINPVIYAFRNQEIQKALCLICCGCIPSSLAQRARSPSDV
Kind of test: Ca2+ FLIPR assay in HEK293 cells transiently transfected with hGPR 12. In kind it is cell-based. The method, then:
as §1, §2, §3, §4, §5

In another test the test system is HEK293 cells. Kind of test: Ca2+ release in HEK293 cells. In kind it is cell-based, human. The conditions noted are these: for sensitivity of induced Ca2+ release to pertussis toxin: signal runs via Gαi-type G proteins. On the procedure:
HEK293 cells were transferred to 96-well microtiter plates 24 hours after transient transfection. The cell density was 80,000 cells per well. The microtiter plates were coated with poly-D-lysine. The cells were kept in medium containing 1% (v/v) FCS (fetal calf serum) for 18 to 24 hours. After trypsinization, the cells were suspended in DMEM (Dulbecco's modified Eagle's medium) that also contained 25 mM HEPES (N-2-hydroxyethylpiperazine-N′-2-ethanesulfonic acid) pH 7.0, 1% (v/v) FCS, […] and 4 μM dye Fluo4 (fluorescent calcium indicator from Molecular Dynamics), and then incubated at 37° C. with 5% (v/v) CO2 for 1 hour. The cells were then washed 3 times with PBS (phosphate-buffered saline) containing 1 mM MgCl2, 1 mM EDTA and 0.4 mg/ml FAF-BSA (fatty acid-free bovine serum albumin). After the last washing step, the volume was 100 ,μl per […]. The compounds to be analyzed, i.e., S1P, DHS1P, suramin, and compounds from the lipid library, were present as 2 mM stock solutions in DMSO (dimethyl sulfoxide). These stock solutions were diluted 1:500 with the PBS solution containing 1 mM MgCl2, 1 mM EDTA and 0.4 mg/ml FAF-BSA. Lipids were present in the form of triple-concentrated 900 μM solutions prior to the assay. Suramin (Sigma) was prepared in the form of a triple-concentrated 900 μM solution in PBS containing 1 mM MgCl2, 1 EDTA, and 0.4 mg/ml FAF-BSA.
as §3, §4
Regarding the FLIPR assay, HEK293 cells were transferred to 96-well microtiter plates 24 hours after transient transfection. The cell density was 80,000 cells per well. The microtiter plates were coated with poly-D-lysine. The cells were kept in medium containing 1% (v/v) FCS (fetal calf serum) for 18 to 24 hours. […] Compounds to be analyzed, e.g., S1P and DHS1 P, were added at this stage. Fluorescence was measured by means of a fluorometric imaging plate reader in 3 second intervals for the first 3 minutes and in 10 second intervals for the last 2 minutes. The fluorescence data of the 18 to 36 second time interval were used to determine agonist activity. The reader itself equalizes internally the zero values.

hGPR 6, sequence (P46095 whole entry): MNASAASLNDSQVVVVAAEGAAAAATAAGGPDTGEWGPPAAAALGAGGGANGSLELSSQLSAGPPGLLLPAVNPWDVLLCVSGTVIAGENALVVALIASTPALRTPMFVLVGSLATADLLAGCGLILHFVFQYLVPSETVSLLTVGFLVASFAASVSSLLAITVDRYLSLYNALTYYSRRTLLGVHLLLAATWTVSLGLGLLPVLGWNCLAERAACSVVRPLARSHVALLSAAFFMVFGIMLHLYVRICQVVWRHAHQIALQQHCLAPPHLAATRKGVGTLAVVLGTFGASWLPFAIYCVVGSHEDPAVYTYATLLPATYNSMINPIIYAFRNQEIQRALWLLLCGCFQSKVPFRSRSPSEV
hGPR 3, sequence (P46089 whole entry): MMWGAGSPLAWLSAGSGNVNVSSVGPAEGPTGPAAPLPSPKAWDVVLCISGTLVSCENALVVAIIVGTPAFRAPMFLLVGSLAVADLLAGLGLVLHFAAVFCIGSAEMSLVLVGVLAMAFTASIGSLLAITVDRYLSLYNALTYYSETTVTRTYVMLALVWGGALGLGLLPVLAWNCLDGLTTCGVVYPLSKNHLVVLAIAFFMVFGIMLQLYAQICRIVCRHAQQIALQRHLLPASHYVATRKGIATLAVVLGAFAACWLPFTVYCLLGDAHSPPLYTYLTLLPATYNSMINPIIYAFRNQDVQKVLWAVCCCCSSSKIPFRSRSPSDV

Regarding `CCCCCCCCCCCCC/C=C/[C@@H](O)[C@@H](N)COP(=O)(O)O` [S1P, sphingosine 1-phosphate], the “identification as ligand (agonist activity, Ca2+ signal)” value at hGPR 6, on hGPR 3 and at hGPR 12 was “physiological ligands” throughout. The half-maximal effective concentration (EC50) at hGPR 6 (Ca2+ FLIPR), on hGPR 3 (Ca2+ FLIPR) and at hGPR 12 (Ca2+ FLIPR) was < 100 nM each time. Also, the “Ca2+ release” value with HEK293 cells was “cause Ca^2+release”. Further, the “sensitivity of induced Ca2+ release to pertussis toxin” value in the test with HEK293 cells was “pertussis toxin-sensitive”.

Turning to `CCCCCCCCCCCCCCC[C@@H](O)[C@@H](N)COP(=O)(O)O` [DHS1P, dihydrosphingosine 1-phosphate], the “identification as ligand (agonist activity, Ca2+ signal)” value at hGPR 6, on hGPR 3 and at hGPR 12 was “physiological ligands” throughout. The “Ca2+ release” value in the test on HEK293 cells is “cause Ca^2+release”. Besides, in the test on HEK293 cells, the “sensitivity of induced Ca2+ release to pertussis toxin” value is recorded as “pertussis toxin-sensitive”.

A word on the EC50: it is the midpoint of the concentration-response curve. A high value points to weaker potency.
